Data reported in patent US20160108049A1 (TAKEDA Gmbh, priority 2011, published 2016).

Columns and labels:
[1] = biological target: T1, PDE4B1 (Homo sapiens, UniProt Q07343); experiment: Inhibition of PDE4 activity (PDE4B1, SPA assay); type: biochemical; conditions: recombinant PDE4B1, 0.5 μM cAMP; read-out: PDE4B1 Inhibitory values measured as -logIC50 (converted)
T1 construct: made in house; host or cells: SF21 insect cells (baculovirus; virus made in SF9 cells, pCR-Bac vector)
Procedure, shortened: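 Baculovirus-expressed enzyme from SF21 cell 1000×g supernatant; substrate 0.5 μM [3H]cAMP in 20 mM Tris pH 7.4, 5 mM Mg2+, 0.1 mg/ml BSA, 10-20% conversion. 5 min preincubation at 37 °C, 15 min reaction, stopped by SPA beads with IBMX; IC50 by non-linear regression.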

[2] = biological target: T2, human PDE5 (Homo sapiens, UniProt O76074); experiment: Inhibition of PDE5 activity (platelet lysate, SPA assay); type: biochemical; conditions: 0.5 μM cGMP, read-out: PDE5 Inhibitory values measured as -logIC50 (converted)
T2 construct: from tissue; host or cells: human platelets from fresh donor blood (platelet lysate)
Procedure, shortened: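 Human platelet lysate (10,000 g supernatant) served as PDE5 source, with 1 μM motapizone and 10 nM PDE2 inhibitor added, in Tris pH 7.4, 5 mM Mg2+, BSA. Substrate 0.5 μM [3H]cGMP, 10–20% conversion; 5 min preincubation then 15 min at 37 °C, stopped by SPA beads with IBMX. IC50 by non-linear regression.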

T1 sequence (Q07343 whole entry): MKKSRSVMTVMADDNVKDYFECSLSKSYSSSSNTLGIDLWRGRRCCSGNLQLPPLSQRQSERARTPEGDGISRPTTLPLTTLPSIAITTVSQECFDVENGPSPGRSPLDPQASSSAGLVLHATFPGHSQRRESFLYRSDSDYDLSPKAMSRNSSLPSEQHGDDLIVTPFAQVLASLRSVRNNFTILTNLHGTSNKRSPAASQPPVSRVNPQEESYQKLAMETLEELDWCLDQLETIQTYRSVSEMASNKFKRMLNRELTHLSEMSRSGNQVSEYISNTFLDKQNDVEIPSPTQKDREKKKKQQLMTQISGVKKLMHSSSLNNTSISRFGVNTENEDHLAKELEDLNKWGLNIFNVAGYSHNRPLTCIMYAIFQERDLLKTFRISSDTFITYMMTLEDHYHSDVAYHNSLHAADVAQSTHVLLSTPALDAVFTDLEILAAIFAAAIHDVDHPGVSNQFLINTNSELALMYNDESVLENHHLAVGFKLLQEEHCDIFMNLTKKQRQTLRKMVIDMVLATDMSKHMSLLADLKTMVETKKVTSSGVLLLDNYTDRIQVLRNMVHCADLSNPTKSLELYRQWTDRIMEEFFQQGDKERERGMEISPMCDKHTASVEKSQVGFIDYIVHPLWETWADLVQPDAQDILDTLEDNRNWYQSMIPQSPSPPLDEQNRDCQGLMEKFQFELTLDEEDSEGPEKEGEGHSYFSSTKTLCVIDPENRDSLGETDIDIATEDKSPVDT

| IC50 [1] [nM] | IC50 [2] [nM] | Compound |
| --- | --- | --- |
| < 1 | < 1 | COc1ccc(C2=NN(C3CCN(C(=O)[C@@H](Cc4ccc(N5CCCC5=O)cc4)NC(=O)c4c[nH]c5c(-c6c(OCC7CC7)ccc7c6OCO7)ncnc45)CC3)C(=O)[C@@H]3CCCC[C@H]23)cc1OC [Example 113, 4-[5-(cyclopropylmethoxy)-1,3-benzodioxol-4-yl]-N-{(2R)-1-{4-[(4aS,8aR)-4-(3,4-dimethoxyphenyl)-1-oxo-4a,5,6,7,8,8a-hexahydrophthalazin-2(1H)-yl]piperidin-1-yl}-1-oxo-3-[4-(2-oxopyrrolidin-1-yl)phenyl]propan-2-yl}-5H-pyrrolo[3,2-d]pyrimidine-7-carboxamide] |
| < 1 | < 1 | COc1ccc(C2=NN(C3CCN(C(=O)[C@H](Cc4ccncc4)NC(=O)c4c[nH]c5c(-c6c(OCC7CC7)ccc7c6OCO7)ncnc45)CC3)C(=O)[C@@H]3CCCC[C@H]23)cc1OC [Example 41, 4-[5-(cyclopropylmethoxy)-1,3-benzodioxol-4-yl]-N-[(2S)-1-{4-[(4aS,8aR)-4-(3,4-dimethoxyphenyl)-1-oxo-4a,5,6,7,8,8a-hexahydrophthalazin-2(1H)-yl]piperidin-1-yl}-1-oxo-3-(pyridin-4-yl)propan-2-yl]-5H-pyrrolo[3,2-d]pyrimidine-7-carboxamide] |
| < 1 | < 1 | COc1ccc(C2=NN(C3CCN(C(=O)[C@@H](Cc4ccc(F)cc4)NC(=O)c4c[nH]c5c(-c6c(OCC7CC7)ccc7c6OCO7)ncnc45)CC3)C(=O)C(C)(C)C2)cc1OC [Example 108, 4-[5-(cyclopropylmethoxy)-1,3-benzodioxol-4-yl]-N-[(2R)-1-{4-[3-(3,4-dimethoxyphenyl)-5,5-dimethyl-6-oxo-5,6-dihydropyridazin-1(4H)-yl]piperidin-1-yl}-3-(4-fluorophenyl)-1-oxopropan-2-yl]-5H-pyrrolo[3,2-d]pyrimidine-7-carboxamide] |
| 1 to 10 | 1 to 10 | COc1ccc(C2=NN(C3CCN(C(=O)[C@@H](Cc4ccccc4)NC(=O)c4c[nH]c5c(-c6c(OCC7CC7)ccc7c6OCO7)ncnc45)CC3)C(=O)C3(CCCC3)C2)cc1OC [Example 123, 4-[5-(cyclopropylmethoxy)-1,3-benzodioxol-4-yl]-N-[(2R)-1-{4-[9-(3,4-dimethoxyphenyl)-6-oxo-7,8-diazaspiro[4.5]dec-8-en-7-yl]piperidin-1-yl}-1-oxo-3-phenylpropan-2-yl]-5H-pyrrolo[3,2-d]pyrimidine-7-carboxamide] |
| 1 to 10 | < 1 | COc1ccc(C2=NN(C3CCN(C(=O)[C@H](Cc4cccnc4)NC(=O)c4c[nH]c5c(-c6c(OCC7CC7)ccc7c6OCO7)ncnc45)CC3)C(=O)C(C)(C)C2)c2c1OC(C)(C)C2 [Example 114, 4-[5-(cyclopropylmethoxy)-1,3-benzodioxol-4-yl]-N-[(2S)-1-{4-[3-(7-methoxy-2,2-dimethyl-2,3-dihydro-1-benzofuran-4-yl)-5,5-dimethyl-6-oxo-5,6-dihydropyridazin-1(4H)-yl]piperidin-1-yl}-1-oxo-3-(pyridin-3-yl)propan-2-yl]-5H-pyrrolo[3,2-d]pyrimidine-7-carboxamide] |
| 1 to 10 | 1 to 10 | COc1ccc(C2=NN(C3CCN(C(=O)CNC(=O)c4c[nH]c5c(-c6c(OCC7CC7)ccc7c6OCO7)ncnc45)CC3)C(=O)C3(CCCC3)C2)cc1OC [Example 122, 4-[5-(cyclopropylmethoxy)-1,3-benzodioxol-4-yl]-N-(2-{4-[9-(3,4-dimethoxyphenyl)-6-oxo-7,8-diazaspiro[4.5]dec-8-en-7-yl]piperidin-1-yl}-2-oxoethyl)-5H-pyrrolo[3,2-d]pyrimidine-7-carboxamide] |
| 1 to 10 | 1 to 10 | COc1ccc(C2=NN(C3CCN(C(=O)[C@H](CN(C)C)NC(=O)c4c[nH]c5c(-c6c(OCC7CC7)ccc7c6OCO7)ncnc45)CC3)C(=O)[C@@H]3CCCC[C@H]23)cc1OC [Example 97, 4-[5-(cyclopropylmethoxy)-1,3-benzodioxol-4-yl]-N-[(2S)-1-{4-[(4aS,8aR)-4-(3,4-dimethoxyphenyl)-1-oxo-4a,5,6,7,8,8a-hexahydrophthalazin-2(1H)-yl]piperidin-1-yl}-3-(dimethylamino)-1-oxopropan-2-yl]-5H-pyrrolo[3,2-d]pyrimidine-7-carboxamide] |
| < 1 | 1 to 10 | COc1ccc(C2=NN(C3CCN(C(=O)[C@@H](C)NC(=O)c4c[nH]c5c(-c6c(OCC7CC7)ccc7c6OCO7)ncnc45)CC3)C(=O)[C@@H]3CCCC[C@H]23)cc1OC [Example 62, 4-[5-(cyclopropylmethoxy)-1,3-benzodioxol-4-yl]-N-[(2R)-1-{4-[(4aS,8aR)-4-(3,4-dimethoxyphenyl)-1-oxo-4a,5,6,7,8,8a-hexahydrophthalazin-2(1H)-yl]piperidin-1-yl}-1-oxopropan-2-yl]-5H-pyrrolo[3,2-d]pyrimidine-7-carboxamide] |
| < 1 | < 1 | COc1ccc(C2=NN(C3CCN(C(=O)[C@@H](Cc4ccc(Cl)cc4Cl)NC(=O)c4c[nH]c5c(-c6c(OCC7CC7)ccc7c6OCO7)ncnc45)CC3)C(=O)[C@@H]3CCCC[C@H]23)cc1OC [Example 48, 4-[5-(cyclopropylmethoxy)-1,3-benzodioxol-4-yl]-N-[(2R)-3-(2,4-dichlorophenyl)-1-{4-[(4aS,8aR)-4-(3,4-dimethoxyphenyl)-1-oxo-4a,5,6,7,8,8a-hexahydrophthalazin-2(1H)-yl]piperidin-1-yl}-1-oxopropan-2-yl]-5H-pyrrolo[3,2-d]pyrimidine-7-carboxamide] |

Further lines, the compound ahead of its results:

| Compound | IC50 [1] [nM] | IC50 [2] [nM] |
| --- | --- | --- |
| COc1ccc(C2=NN(C3CCN(C(=O)[C@H](CCC(=O)N4CCCCC4)NC(=O)c4c(C)[nH]c5c(-c6c(OCC7CC7)ccc7c6OCO7)ncnc45)CC3)C(=O)[C@@H]3CCCC[C@H]23)cc1OC [Example 83, 4-[5-(cyclopropylmethoxy)-1,3-benzodioxol-4-yl]-N-[(2S)-1-{4-[(4aS,8aR)-4-(3,4-dimethoxyphenyl)-1-oxo-4a,5,6,7,8,8a-hexahydrophthalazin-2(1H)-yl]piperidin-1-yl}-1,5-dioxo-5-(piperidin-1-yl)pentan-2-yl]-6-methyl-5H-pyrrolo[3,2-d]pyrimidine-7-carboxamide] | 1 to 10 | < 1 |
| CCOc1ccc(C[C@@H](NC(=O)c2c(C)[nH]c3c(-c4c(OCC5CC5)ccc5c4OCO5)ncnc23)C(=O)N2CCC(N3N=C(c4ccc(OC)c(OC)c4)[C@H]4CCCC[C@H]4C3=O)CC2)cc1 [Example 10, 4-[5-(cyclopropylmethoxy)-1,3-benzodioxol-4-yl]-N-[(2R)-1-{4-[(4aS,8aR)-4-(3,4-dimethoxyphenyl)-1-oxo-4a,5,6,7,8,8a-hexahydrophthalazin-2(1H)-yl]piperidin-1-yl}-3-(4-ethoxyphenyl)-1-oxopropan-2-yl]-6-methyl-5H-pyrrolo[3,2-d]pyrimidine-7-carboxamide] | < 1 | < 1 |
| COc1ccc(C2=NN(C3CCN(C(=O)[C@H](NC(=O)c4c[nH]c5c(-c6c(OCC7CC7)ccc7c6OCO7)ncnc45)C(C)(C)C)CC3)C(=O)[C@@H]3CCCC[C@H]23)cc1OC [Example 121, 4-[5-(cyclopropylmethoxy)-1,3-benzodioxol-4-yl]-N-[(2R)-1-{4-[(4aS,8aR)-4-(3,4-dimethoxyphenyl)-1-oxo-4a,5,6,7,8,8a-hexahydrophthalazin-2(1H)-yl]piperidin-1-yl}-3,3-dimethyl-1-oxobutan-2-yl]-5H-pyrrolo[3,2-d]pyrimidine-7-carboxamide] | 1 to 10 | 1 to 10 |
| COc1ccc(C2=NN(C3CCN(C(=O)[C@H](Cc4ccccn4)NC(=O)c4c(C)[nH]c5c(-c6c(OCC7CC7)ccc7c6OCO7)ncnc45)CC3)C(=O)[C@@H]3CCCC[C@H]23)cc1OC [Example 38, 4-[5-(cyclopropylmethoxy)-1,3-benzodioxol-4-yl]-N-[(2S)-1-{4-[(4aS,8aR)-4-(3,4-dimethoxyphenyl)-1-oxo-4a,5,6,7,8,8a-hexahydrophthalazin-2(1H)-yl]piperidin-1-yl}-1-oxo-3-(pyridin-2-yl)propan-2-yl]-6-methyl-5H-pyrrolo[3,2-d]pyrimidine-7-carboxamide] | 1 to 10 | < 1 |
| COc1cc(OCC2CC2)c(-c2ncnc3c(C(=O)N[C@H](Cc4ccccc4)C(=O)N4CCC(N5N=C(c6ccc(OC)c(OC)c6)[C@H]6CCCC[C@H]6C5=O)CC4)c(C)[nH]c23)cc1F [Example 22, 4-[2-(cyclopropylmethoxy)-5-fluoro-4-methoxyphenyl]-N-[(2R)-1-{4-[(4aS,8aR)-4-(3,4-dimethoxyphenyl)-1-oxo-4a,5,6,7,8,8a-hexahydrophthalazin-2(1H)-yl]piperidin-1-yl}-1-oxo-3-phenylpropan-2-yl]-6-methyl-5H-pyrrolo[3,2-d]pyrimidine-7-carboxamide] | 1 to 10 | 1 to 10 |
| COc1ccc(C2=NN(C3CCN(C(=O)[C@@H](CCC(=O)N(C)C)NC(=O)c4c(C)[nH]c5c(-c6c(OCC7CC7)ccc7c6OCO7)ncnc45)CC3)C(=O)C(C)(C)C2)cc1OC [Example 118, 4-[5-(cyclopropylmethoxy)-1,3-benzodioxol-4-yl]-N-[(2R)-1-{4-[3-(3,4-dimethoxyphenyl)-5,5-dimethyl-6-oxo-5,6-dihydropyridazin-1(4H)-yl]piperidin-1-yl}-5-(dimethylamino)-1,5-dioxopentan-2-yl]-6-methyl-5H-pyrrolo[3,2-d]pyrimidine-7-carboxamide] | 1 to 10 | < 1 |
